In US20140073607A1, “COMPOUNDS FOR USE IN THE TREATMENT OF FELINE RETROVIRAL INFECTIONS” (OKAPI SCIENCES NV, priority 2011, published 2014):
Converted amounts (≈) assume the structure as drawn.

How the values were obtained:
[1] = system: FIV; conditions: FIV-infected cats, Hartmann et al. 1998; cited from earlier work
[2] = system: FeLV; assay: Inhibition of FeLV replication in CrFK cell culture (p27 ELISA and RT-qPCR); format: cell-based; conditions: CrFK cells, 100 CCID50 FeLV, six days, mean ± SD of three independent assays
Method: The compounds were dissolved in a 0.05 N sodium hydroxide solution at a concentration of 10 mg/ml. Crandell Reese Feline kidney (CrFK) cells were grown in Dulbecco minimum essential medium (DMEM, Life Technologies) containing 1% sodium bicarbonate (Life Technologies) and 5% fetal calf serum (FCS, Biochrom). In a 96-well plate 5000 CrFK cells were seeded and incubated for 24 h at 37° C. in a humid atmosphere containing 5% CO2. Subsequently cells were washed with 100 μl phosphate buffered saline (PBS) containing 50 μg/ml DEAE-dextran and inoculated with 100 CCID50 FeLV in presence of increasing doses of the compounds (0.4; 2; 10 and 50 μg/ml). After 2 h of incubation allowing the virus to enter the cells, the supernatant was removed and the cells were washed with PBS. DMEM including 5% FCS and containing increasing doses of the compounds were added to the infected cells. Infected cells without compounds were included as positive controls (virus control) and uninfected cells were included as negative controls (cell control). The cells were incubated for six days when viral supernatant was collected and analyzed by enzyme-linked immunosorbent assay (ELISA) for FeLV p27 antigen production and real time RT-qPCR for FeLV RNA production. […]

[3] = system: FIV; assay: Treatment of clinically ill cats naturally infected with FIV; format: in vivo, cat
Method: The compounds were dissolved to a concentration ranging between 50 and 250 mg/mL in an appropriate aqueous buffered sodium hydroxide solution close to neutral pH conditions (pH between 6 and 9).
The formulated compounds were administered via the subcutaneous route at least once weekly at total dose rates ranging between 10 and 175 mg/kg per week. Treatment duration was between 1 week and 3 months.
The results of the treatment of cats with specific symptoms are discussed below. • Cats with oral signs. • Oral signs can present themselves as, but are not limited to, stomatitis, gingivitis, faucitis, glossitis, periodontitis, gingivostomatitis, ulcerations of the tonsils and tongue, salivation etc. […] Spontaneous bleeding was no longer observed and the bloody red inflammation diminished to a slightly pinkish observation. No other treatment was given concomitantly. • Cats with high viral load • FIV, as a retrovirus, reverse transcribes its viral RNA genome into proviral DNA which is subsequently inserted into the genome of its host. […] Reduction of viral load is important in controlling FIV infection in the cat. […] The graphs in FIGS. 1A, B and C represent the viral load pre and post treatment with the compounds in three different cats. No other treatment was given concomitantly. • Lethargic and emaciated cat, with severe weight loss • The FIV-positive cat was presented to the veterinarian with the following clinical signs: lethargy, emaciation, difficulty to walk, unable to jump up/off a chair, no desire to go outdoors, prolonged sleeping patterns. Prognosis was to euthanize the cat. • Treatment with the compounds was initiated and within a matter of weeks, the cat returned to normal, gained weight (0.6 kg), walked and played around, stayed outdoors for several consecutive days. […] No other treatment was given concomitantly. • Cat with lymphadenopathy (swollen/enlarged lymph nodes) • A male FIV-positive cat with swollen Lnn. poplitei (score 4; severity is scored on a scale from 0 to 10 with 0 representing a normal clinical picture and 10 being the most severe manifestation) was treated with the compounds. Within two weeks the swelling went down to a score of 2. At the end of the 6-week treatment period with the compounds a score of 1 was noted; 0 representing a normal clinical picture. […] Before treatment the Lnn. poplitei were swollen (score 2). Two weeks into treatment the lymphnodes returned to normal (score 0) which was maintained throughout the 6-week treatment period with the compounds. • Similar observations were made for two FIV-positive cats. When treatment was initiated the Lnn. mandibulares were swollen (score 2 and 3, respectively). The returned to normal (score 0) by the end of the 6-week treatment with the compounds. • Cat with inflammation of the eye • A female FIV-positive cat suffered from chronic inflammation of the eye before treatment with the compounds was initiated despite concurrent antibacterial treatment. […] No other treatment was given concomitantly. One week following treatment the cat was able to sit up straight and eat on its own. Treatment was continued for another four weeks after which the cat was able to walk, climb up and down stairs, and eat on its own. […] The Karnofsky's score has proven its validity in cats to assess and compare the efficacy of antiviral compounds (Hartmann et al., J Acquir Immune Defic Syndr Hum Retrovirol 1998). Table 4 summarizes the Karnofsky's score of two FIV-positive cats before, during and post treatment with the compounds. No other treatment was given concomitantly.

[4] = system: FIV-Ut113; assay: Inhibition of FIV replication in CrFK cells co-infected with FeLV and FIV (p24 ELISA and RT-qPCR); format: cell-based; conditions: CrFK cells co-infected with FeLV and FIV-Ut113, six days; mean ± SD of three independent assays
Method: (§1) The compounds were dissolved in a 0.05 N sodium hydroxide solution at a concentration of 10 mg/ml. Reference compounds PMEDAP and PMEA were dissolved in a sodium bicarbonate buffer at a concentration of 10 mg/ml.
(§2) Crandell Reese Feline kidney (CrFK) cells were grown in Dulbecco minimum essential medium (DMEM, Life Technologies) containing 1% sodium bicarbonate (Life Technologies) and 5% fetal calf serum (FCS, Biochrom). In a 96-well plate 5000 CrFK cells were seeded and incubated for 24 h at 37° C. in a humid atmosphere containing 5% CO2. Subsequently cells were washed with 100 μl phosphate buffered saline (PBS) containing 50 μg/ml DEAE-dextran and co-infected with 100 CCID50 FeLV and 100 CCID50 FIV-Ut113 in presence of increasing doses of the compounds (0.4; 2; 10 and 50 μg/ml). After 2 h of incubation allowing the virus to enter the cells, the supernatant was removed and the cells were washed with PBS. […] The cells were incubated for six days when viral supernatant was collected and analyzed by ELISA for FeLV p27 and FIV p24 antigen production and real time RT-qPCR for FeLV and FIV RNA production. […] Subsequently the amount of FIV p24 was detected by a monoclonal biotinylated antibody 5E6D11 followed by a colorimetric reaction which is based on extravidin peroxidase (Sigma) and OPD substrate (Sigma).

[5] = system: FIV and FeLV; assay: Treatment of cats naturally co-infected with FIV and FeLV; format: in vivo; conditions: cat co-infected with FIV and FeLV, pre versus post treatment (FIG. 2); no other treatment
Method: The compounds were dissolved in an appropriate aqueous buffered sodium hydroxide solution (at concentration ranging between 50 and 250 mg/ml and close to neutral pH conditions (pH between 6 and 9). The formulated compounds were administered via the subcutaneous route at least once weekly at total dose rates ranging between 10 and 175 mg/kg per week. Treatment duration was between 1 week and 3 months.
FIV and FeLV, as retroviruses, reverse transcribe their viral RNA genome into proviral DNA which is subsequently inserted into the genome of its host. […] Reduction of viral load is important in controlling FIV/FeLV infection in the cat. […] The graph in FIG. 2 represents the viral load pre and post treatment with the compounds in a cat co-infected with FIV and FeLV. No other treatment was given concomitantly.

[6] = system: FeLV; assay: Treatment of cats naturally infected with FeLV; format: in vivo, cat
[7] = system: FeLV; assay: Inhibition of FeLV replication in CrFK cells co-infected with FeLV and FIV (p27 ELISA and RT-qPCR); format: cell-based; conditions: CrFK cells co-infected with FeLV and FIV-Ut113, six days; mean ± SD of three independent assays
Method: as §1, §2

[8] = FIV-positive cat A, 50% before treatment
[9] = FIV-positive cat B, 30.5% before treatment

For Nc1ncnc2c1ncn2C[C@@H](CF)OCP(=O)(O)O [FPMPA, (S)-9-(3-fluoro-2-phosphonylmethoxypropyl)adenine], the “Effect on FIV load” value [1] is listed as “reduced the FIV load” and the “Improvement in Karnofsky's score” value [1] is listed as 3.8%.

In the case of Nc1ncnc2c1ncn2CCOCP(=O)(O)O [PMEA, 9-(2-phosphonylmethoxyethyl)adenine, reference compound], the “Effect on FIV load” value [1] is listed as “did not decrease the FIV load” and the “Improvement in Karnofsky's score” value [1] is listed as 10%.

For CC(Cn1cnc2c(N)nc(N)nc21)OCP(=O)(O)O (centres unmarked) [R-PMPDAP, 9-(2-phosphonylmethoxypropyl)-2,6-diaminopurine], the “EC50 of FeLV replication, RT-qPCR” value ([2]; FeLV RNA in supernatant) was 0.039 ± 0.024 µg/mL, the “EC50 of FeLV replication, p27 ELISA” value ([2]; p27 antigen in supernatant) was 0.030 ± 0.006 µg/mL and the “Karnofsky's score, 1 month post cessation of treatment” value [3, 8] was 90%. The “Karnofsky's score, during treatment” value [3, 8] was 70%, the “Karnofsky's score, end of treatment” value [3, 8] was 90% and the “Karnofsky's score, 1 month post cessation of treatment” value [3, 9] was 35%. The “Karnofsky's score, during treatment” value [3, 9] was 50%, the “Karnofsky's score, end of treatment” value [3, 9] was 50% and the Stomatitis upon treatment ([3]; FIV-positive cat with severe caudal stomatitis and buccostomatitis, subcutaneous, 10-175 mg/kg per week, no other treatment) was “the stomatitis decreased significantly”. The Gingivitis upon treatment ([3]; FIV-positive cat with severe gingivitis with spontaneous bleeding, subcutaneous, no other treatment) was “the gingivitis decreased significantly”, the “Viral load (FIV virions per mL plasma)” value ([3]; FIV-positive cats, pre versus post treatment, three cats (FIG. 1A, B, C)) was “significantly reduce the viral load” and the “Chronic inflammation of the eye following treatment” value ([3]; female FIV-positive cat, concurrent antibacterial treatment) was “on its way to full recovery”. The “Swelling score of Lnn. poplitei” value ([3]; female FIV-positive cat, score 2 before treatment, scale 0 to 10, two weeks into treatment, maintained throughout 6 weeks) was 0, the Weight gained ([3]; lethargic, emaciated FIV-positive cat with severe weight loss, within a matter of weeks) was 0.6 kg and the General condition ([3]; lethargic, emaciated FIV-positive cat, prognosis was to euthanize, within a matter of weeks) was “general condition returned to normal”. For the same molecule, the “Swelling score of Lnn. poplitei” value ([3]; male FIV-positive cat, score 4 before treatment, scale 0 to 10, end of the 6-week treatment period) was 1, the “Swelling score of Lnn. poplitei” value ([3]; male FIV-positive cat, score 4 before treatment, scale 0 to 10, within two weeks) was 2 and the “Neurological symptoms (acute paresis of left front and hind legs)” value ([3]; male FIV-positive cat, shortly after five weeks of treatment, no other treatment) was “A full recovery was observed”. The “Feces (chronic daily diarrhea)” value ([3]; male FIV-positive cat, within two weeks) was “returned to normal within two weeks”, the “Swelling score of Lnn. mandibulares” value ([3]; two FIV-positive cats, score 2 and 3 at start, scale 0 to 10, end of the 6-week treatment) was 0 and the “EC50 FIV ELISA (p24)” value [4] was 0.332 ± 0.035 µg/mL (≈ 1.1 µM). For the same molecule, the “EC50 FIV RT-qPCR” value [4] was 0.258 ± 0.024 µg/mL (≈ 0.854 µM), the “Viral load (FIV/FeLV virions per mL plasma)” value [5] was “significantly reduce the viral load” and the “FeLV viral load after treatment” value ([6]; female FeLV-positive viremic cat, RT-qPCR, decreased from 15500) was 3200 FeLV virions per mL plasma. The “Karnofsky's score at the end of the 3-week treatment period” value ([6]; male FeLV-positive cat with clinical signs, 58.5% before treatment) was 80%, the “FeLV associated clinical signs following treatment” value ([6]; male FeLV-positive cat with oral inflammation, lymphadenopathy, diarrhea) was “the clinical signs ameliorated” and the “EC50 FeLV ELISA (p27)” value [7] was 0.062 ± 0.010 µg/mL (≈ 0.205 µM). The “EC50 FeLV RT-qPCR” value [7] was 0.095 ± 0.050 µg/mL (≈ 0.314 µM).
